Two molecules from patent US12396963B2, “Cannabidiol-type cannabinoid compound” (JAZZ PHARMACEUTICALS RESEARCH UK LIMITED, priority 2019, dated 2025) can be followed below.

Each structure is given as a SMILES string.

Experiment [1] has as its system mouse model of generalised seizure. As to the kind of experiment: Maximal electroshock seizure threshold (MEST) test in the mouse, Example 3. Conditions: CC50, 30 min pre-treatment. The protocol: The efficacy of CBD-C1 was tested in a mouse model of generalised seizure, the maximal electroshock seizure threshold (M EST) test, as in Example 2.
Naïve mice were acclimatised to the procedure room in their home cages for up to 7 days, with food and water available ad libitum.
All animals were weighed at the beginning of the study and randomly assigned to treatment groups based on a mean distribution of body weight across groups.
The first animal within a treatment group was given a shock at the expected or estimated CC50 current. For subsequent animals, the current was lowered or raised depending on the convulsions outcome from the preceding animal.
Data generated from each treatment group were used to calculate the CC50±SEM values for the treatment group.
Vehicle: (5% ethanol, 5% solutol, 90% Saline) was prepared as follows: 2 mL of ethanol, 2 mL of solutol were warmed to 60° C., in 36 mL of saline (1:1:18).
The test compound, CBD-C1 was prepared according to the method described in Example 1. […]
CBD-C1 effects were also calculated as percentage change in CC50 from the vehicle control group.
Significant difference between drug-treated animals and controls were assessed according to Litchfield and Wilcoxon (1949).

For a further experiment, the system named is mouse model of seizure. The experiment can be described thus: Maximal electroshock seizure threshold (MEST) test in the mouse, Example 2. Conditions: CC50; 2.5 mg/kg i.p., 30 min pre-treatment. The protocol:
The efficacy of CBD-C1 was tested in a mouse model of seizure, the maximal electroshock seizure threshold (MEST) test.
The maximal electroshock seizure threshold (MEST) test is widely utilized preclinically to evaluate pro- and anti-convulsant properties of molecules (Loscher et al., 1991).
In the MEST test the ability of a drug to alter the seizure threshold current required to induce hind limb tonic extensor convulsions is measured according to an “up and down” method of shock titration (Kimball et al., 1957). An increase in seizure threshold is indicative of anti-convulsant effect.
Naïve mice were acclimatised to the procedure room in their home cages, with food and water available ad libitum.
Animals were dosed i.p. according to dose group.
The vehicle (10 ml/kg i.p. 60 min pre-treatment time) was 1:1:18 vehicle 5% ethanol, 5% kolliphor EL, 90% saline. […]
Mice were individually assessed for the production of a tonic hind limb extensor seizure using a Hugo Sachs Electronik stimulator, which delivered an adjustable constant current (1-300 mA) of 0.1 s duration via corneal electrodes. […]
Induction of seizure is measured as an all-or-nothing effect scored as either present (+) or absent (0) for each animal.
Data was analysed by comparing treated groups with the appropriate vehicle control using Fisher's Exact Probability tests.

Consider `CCCC(CCC)C(=O)[O-].[Na+]` [Sodium Valproate, sodium valproate, reference compound], for which the “% change from vehicle” value in experiment [1] (250 mg/kg i.p.) was determined as 1160%.

For the molecule `CN1C(=O)CN=C(c2ccccc2)c2cc(Cl)ccc21` [Diazepam, diazepam, reference compound], the results for the “% change from vehicle” value (in the experiment with mouse model of seizure; in experiment [1] (2.5 mg/kg i.p.)) were 68% and 247%, respectively.
